According to ChEMBL document CHEMBL1156829 (Proc Natl Acad Sci U S A, 2008):
Where “and” joins values, the source holds several entries; their conditions need not be identical. Equal entries are not always repeated.

Assays:
[1] = tested on: Plasmodium falciparum; assay: NOVARTIS: Inhibition of Plasmodium falciparum 3D7 (drug-susceptible) proliferation in erythrocyte-based infection assay; format: functional, organism-based
[2] = tested on: Plasmodium falciparum; assay: NOVARTIS: Inhibition of Plasmodium falciparum W2 (drug-resistant) proliferation in erythrocyte-based infection assay; format: functional, organism-based; conditions: read-out: EC50
[3] = NOVARTIS: Cytotoxicity against human hepatocellular carcinoma cell line (Huh7); format: toxicity, cell-based, Huh-7; conditions: Huh7 cells (hepatocellular carcinoma cell line)

SMILES	EC50 ([1]; Plasmodium falciparum, 3D7) [µM]	EC50 ([2]; Plasmodium falciparum, W2) [µM]	CC50 [3] [µM]	EC50 [2]	EC50 [1]
CC(C)(C)C(=O)NCCNc1ccc([N+](=O)[O-])cc1C(F)(F)F	2.26	1.11	> 100	–	–
CCNC(=O)NCCSc1nc(-c2ccc(OC)cc2)c(-c2ccc(OC)cc2)n1CC	> 1.66	> 0.812	> 10	–	–
CCCCCCCCCCCCn1ccc(=N)cc1	0.321	0.188	4.99	–	–
COc1ccc(CNC2CCN(c3cccc(NC(=O)C4CC4)c3)CC2)cc1	2.95	0.948	65.1	–	–
COc1ccc(OC)c(C=NNC(=O)Cc2cc(O)n[nH]2)c1	> 1.25	1.94	–	–	–
CC12C(=O)N(c3cccc(C(=O)O)c3)C(=O)C1C1c3ccccc3C2c2ccccc21 (stereo unspecified)	> 0.652	> 1.25	–	–	–
Cc1c(Br)c([N+](=O)[O-])nn1CC(=O)NC(C)c1ccccc1 (stereo unspecified)	> 1.25	> 0.948	–	–	–
CCCCOc1cccc(NC(=O)CSC2=C(C#N)C(c3ccccc3)C(C(=O)Nc3ccccc3)=C(C)N2)c1 (stereo unspecified)	0.507	0.479	–	–	–
CC(=O)N1CCc2cc(Br)cc(S(=O)(=O)N(CC(C)C)CC(C)C)c21	1.22	0.27	–	–	–
O=C(NC(=S)Nc1ccc(-c2nc3ccccc3s2)cc1)c1ccc(S(=O)(=O)N2CCCC2)cc1	2.05	> 1.59	–	–	–
N#CCSc1nc2c(sc(=S)n2-c2ccccc2)c(=O)n1Cc1ccco1	> 1.35	0.715	–	–	–
CC(C)CN1C(=O)c2ccccc2C(C(=O)Nc2cccc(C(F)(F)F)c2)C1c1cccs1 (stereo unspecified)	–	–	> 100	–	–
CCOC(=O)CC(C)(O)P(=O)(OC)OC (stereo unspecified)	> 1.01	> 1.25	–	–	–
Cc1cc(Nc2ccc(C)c(F)c2)n2nc(C)nc2n1	1.04	–	> 100	–	–
COc1ccc(-c2cc(C(F)(F)F)n3ncc(C(=O)NCc4ccccc4)c3n2)cc1	> 1.25	1.54	–	–	–
CC(C)CN1C(=O)c2ccccc2C(C(=O)Nc2cccc(Cl)c2)C1c1cccs1 (stereo unspecified)	–	–	93.5	–	–
CC(C)CN1C(=O)c2ccccc2C(C(=O)Nc2ccccn2)C1c1cccs1 (stereo unspecified)	–	–	> 100	–	–
CC1=NN(c2ccccc2)C(=O)C1=NNc1c(Br)cc(Br)cc1Br	> 1.25	> 1.05	–	–	–
COc1cnc(-c2ccccn2)nc1N1CCCC1	0.489	0.648	–	–	–
CN(C)c1ccc(/C=C2\N=C(c3ccccc3F)OC2=O)cc1	> 1.25	> 1.21	–	–	–
CCN1C=Cc2ccccc2/C1=C\c1ccc2ccccc2[n+]1CC	0.67	0.294	–	–	–

SMILES	EC50 ([1]; Plasmodium falciparum, 3D7) [µM]	EC50 ([2]; Plasmodium falciparum, W2) [µM]	CC50 [3] [µM]	EC50 [2]	EC50 [1]
CCOC(=O)C1=C(C)N=c2sc(=Cc3cc(Cl)ccc3O)c(=O)n2C1c1ccc(OC)c(OC)c1 (stereo unspecified)	–	–	> 100	1.45 µM and 0.264 µM	–
CN(C)c1ccc(C=C2SC(=Nc3ccccc3)NC2=O)cc1	0.0271	–	> 74.4	–	–
CCOC(=O)C1=C(C)NC(=Cc2cc(C)n(-c3ccccc3C(F)(F)F)c2C)C1=O	0.0138	0.0117	–	–	–
CCc1nc(N)nc(N)c1-c1ccccc1	1.55	> 1.25	–	–	–
CN(C)c1ccc(/C=C2/SC(=Nc3ccccc3Cl)NC2=O)cc1	> 1.25	–	–	> 0.512 µM and 1.41 µM	0.713 µM
CCOC(=O)C1=C(C)N/C(=C/c2cc(C)n(-c3ccccc3C(F)(F)F)c2C)C1=O	0.471	0.628	–	–	–
O=C(/C=C/c1ccccc1)Nc1ccc(C(=O)OC[C@@H]2CCCN3CCCC[C@H]23)cc1	1.44	> 1.25	–	–	–
COc1ccc(-c2nc(-c3ccc(-c4[nH]c(-c5ccc(OC)cc5)nc4-c4ccccc4)cc3)c(-c3ccccc3)[nH]2)cc1	1.29	> 1.25	–	–	–
N#Cc1c2c(c(N3CCN(C(c4ccccc4)c4ccccc4)CC3)n3c1nc1ccccc13)CCC2	> 1.25	2.27	–	–	–
CCCOc1ccc(C(=O)C2=C(O)C(=O)N(CCN3CCOCC3)C2c2ccc(F)cc2)c(C)c1 (stereo unspecified)	> 1.25	> 0.896	–	–	–
O=C(Cn1ccc(=NCc2ccccc2)cc1)c1cccc(Br)c1	> 1.39	> 0.11	–	–	–
Cc1ccc(Nc2nc(-c3ccccn3)cs2)cc1	0.407	0.368	–	–	–
COc1ccc2ccccc2c1C1NC(SCc2ccc(F)cc2)=NC(C)=C1C(C)=O (stereo unspecified)	> 1.61	0.702	–	–	–
CCCCOc1ccc(/C=C(/C#N)c2nc(-c3ccc(-c4ccccc4)cc3)cs2)cc1	> 1.25	> 0.774	–	–	–
COc1cc(C=NNc2nc3ccccc3[nH]2)cc(Br)c1O	1.42	> 1.25	–	–	–
COc1ccc(-c2csc(NC(=O)COc3ccccc3Cl)n2)cc1Br	1.64	0.286	–	–	–
CN[C@@H]1CC2O[C@@](C)([C@@H]1OC)n1c3ccccc3c3c4c(c5c6ccccc6n2c5c31)C(=O)NC4	–	–	0.355	–	–
Cc1cc2cc3c(cc2c(C)n1)c1ccccc1n3C	1.27	1.1	–	–	–
C=CC12CCN(CC1)C(C(O)c1ccnc3ccc(OC)cc13)C2 (stereo unspecified)	–	0.0293	77.7	–	–
COc1ccc(C2C(C(=O)c3ccc(C)cc3)=C(O)C(=O)N2CCN2CCOCC2)c(OC)c1 (stereo unspecified)	> 0.05	> 1.25	–	–	–
CC(C)CC[n+]1ccccc1C=Cc1ccc(N(C)C)cc1	–	–	–	0.548 µM	0.747 µM

SMILES	EC50 ([1]; Plasmodium falciparum, 3D7) [µM]	EC50 ([2]; Plasmodium falciparum, W2) [µM]	CC50 [3] [µM]	EC50 [2]	EC50 [1]
CC[n+]1ccc(C=Cc2ccc(N(C)C)cc2)cc1	0.681	–	–	0.724 µM	–
CC(C)CN1C(=O)c2ccccc2C(C(=O)Nc2ccccc2F)C1c1cccs1 (stereo unspecified)	–	–	> 100	–	–
Cc1ccc(N=C(Nc2ccc(C)cc2)Nc2ccccc2O)cc1	1.53	0.231	–	–	–
CC(C)CN1C(=O)c2ccccc2C(C(=O)NC2CCCCC2)C1c1cccs1 (stereo unspecified)	–	–	> 100	–	–
CNc1nc(NN=Cc2cc([N+](=O)[O-])ccc2O)nc(Nc2cccc(C(F)(F)F)c2)n1	1.86	> 1.66	–	–	–
CC1(C)Cc2nc3ccccc3c(NCc3ccc(Cl)cc3)c2C(O)C1 (stereo unspecified)	> 1.25	2.11	–	–	–
O=C(CCCn1c2ccccc2c(=O)c2ccccc21)NCc1ccc(F)cc1	1.11	1.09	–	–	–
Cc1ccc(NC(=O)c2cc3ccccc3oc2=O)nc1	> 1.08	> 1.25	–	–	–
CCOC(=O)c1c(-c2ccc3c(c2)OCO3)[nH]c2cccc(OC)c2c1=O	–	–	> 10	–	–
CCN1/C(=C\c2sc3ccc(O)cc3[n+]2CC)C=Cc2ccccc21	0.582	0.701	–	–	–
CN(C=Cc1sc2ccc3ccccc3c2[n+]1C)c1ccccc1	–	–	–	0.909 µM	0.553 µM
Cc1cc(/C=C2\SC(=Nc3ccccc3)N(C3CCCCC3)C2=O)c(C)n1-c1ccc(F)cc1	–	0.383	> 100	0.68 µM	–
CCCCNc1nc(NC(C)(C)C)nc(NC(C)(C)C)n1	2.16	0.804	–	–	–
O=C1C(N2CCCCC2)=C(N2CCOCC2)C(=O)c2ccccc21	1.24	> 1.46	–	–	–
CN1/C(=C/C=C/c2oc3ccccc3[n+]2C)Oc2ccccc21	0.161	–	–	–	0.182 µM
CCCOC(=O)c1c(NC(=O)c2c(I)cnn2C)sc2c1CCCCC2	1.24	> 1.25	–	–	–
C=C[C@H]1C[N@]2CC[C@H]1C[C@H]2[C@H](O)c1ccnc2ccc(OC)cc12	0.518	0.793	–	–	–
COc1cc2c(cc1OC)C1=NNC(=O)C1=NC(C)(C)C2	> 1.58	0.793	–	–	–
CC[n+]1cc(C)ccc1C=Cc1ccc(N(C)C)cc1	–	0.386	–	–	0.521 µM
Cc1ccnc(Nc2nc(-c3ccccn3)cs2)c1	0.113	0.0463	–	–	–
CCC(C)NC(=O)c1nn(-c2ccc(Cl)cc2)c(=O)c2ccccc12 (stereo unspecified)	0.285	0.696	–	–	–

SMILES	EC50 ([1]; Plasmodium falciparum, 3D7) [µM]	EC50 ([2]; Plasmodium falciparum, W2) [µM]	CC50 [3] [µM]	EC50 [2]	EC50 [1]
CCN1/C(=C/c2sc3ccc(-c4ccccc4)cc3[n+]2CCO)C=Cc2cc(OC)ccc21	0.487	0.945	–	–	–
COc1cccc(NC(=O)C2C3C=CC4(O3)C2C(=O)N(CC2COc3ccccc3O2)C4C(=O)NC2CCCCC2)c1 (stereo unspecified)	> 1.25	> 0.0537	–	–	–
Oc1ccccc1CNC(Cc1ccccc1)C(O)(c1ccccc1)c1ccccc1 (stereo unspecified)	0.203	0.0276	–	–	–
C=CC1CN2CCC1CC2[C@@H](OC(=O)c1cc([N+](=O)[O-])cc([N+](=O)[O-])c1)c1ccnc2ccc(OC)cc12 (stereo partly specified)	1.3	1.61	–	–	–
COc1ccc(/C=C2\SC(=S)N(CC(=O)NNC(=O)c3ccncc3)C2=O)cc1	> 1.53	2.28	–	–	–
CN(C)c1ccc(/C=C2\SC(=N)N(c3nccs3)C2=O)cc1	0.223	0.307	–	–	–
CCN(CC)c1ccc(/C=C/c2ccc3ccc(OC)cc3[n+]2CC)cc1	–	–	–	–	0.0384 µM and 0.248 µM
CCOC(=O)c1c[nH]c2c(ccc3ccccc32)c1=O	–	–	> 100	–	–
CCCCN(CCCC)c1nc(=O)cc(-c2ccc(Cl)cc2)o1	0.81	0.636	–	–	–
O=C1CCC(=O)N1c1ccc(CSc2nc3ccccc3[nH]2)cc1	> 0.281	> 1.25	–	–	–
Cc1ccc(NC(=O)C2C3C=CC4(O3)C2C(=O)N(CCCN2CCOCC2)C4C(=O)NC2CCCC(C)C2C)cc1Cl (stereo unspecified)	> 1.63	> 0.117	–	–	–
Cc1cccc(NC(c2cccc(F)c2)c2ccc3cccnc3c2O)n1 (stereo unspecified)	1.71	0.88	–	–	–
O=C1/C(=C/c2ccccc2)SC(=Nc2ccccc2)N1C1CCCCC1	1.2	> 1.25	–	–	–
Cc1ccc(C=Cc2ccc(N(C)C)cc2)[n+](C)c1	–	–	–	0.914 µM	1.16 µM
CCC(=O)Nc1ccc(C(=O)NN=Cc2cc([N+](=O)[O-])ccc2O)cc1	> 1.25	1.54	–	–	–
CN1/C(=C\C=C\C2=[N+](C)c3ccc4ccccc4c3C2(C)C)C(C)(C)c2ccccc21	1.64	1.02	–	–	–
COC(=O)c1ccc(C2C3=C(O)CC(c4ccco4)CC3=Nc3ccccc3N2C(=O)c2ccccc2)cc1 (stereo unspecified)	0.387	–	> 100	–	0.579 µM
CCOC(=O)c1c(-c2ccc3c(c2)OCO3)[nH]c2cc(OC)ccc2c1=O	0.127	0.18	–	–	–
O=C(Nc1cccc(-c2csc(-c3ccccc3)n2)c1)c1cccs1	1.25	0.672	–	–	–
O=[N+]([O-])c1ccc(C2OC3C(c4ccc(Cl)cc4)=Nc4ccccc4N3C2c2ccc([N+](=O)[O-])cc2)cc1 (stereo unspecified)	> 1.25	0.709	–	–	–
Oc1ccc(C(CCNCCc2c[nH]c3ccccc23)c2ccccc2)cc1 (stereo unspecified)	> 0.997	0.474	–	–	–
